Legend:
Balb/C mice = test: Skin atrophy after 8-day topical treatment of dorsal skin; assay type: in vivo, mouse
Source text: To investigate whether, similarly to Dex, a topical administration of CpdX could result in a skin atrophy, Balb/C mice were shaved on the dorsal skin. Ethanol (vehicle), Dex, CpdX or either one of its two enantiomers CpdX(eA) or CpdX(eB), as well as the deuterated form CpdX-D3 or either one of its two enantiomers CpdX-D3(eA) or CpdX-D3(eB), were topically applied onto the dorsal skin for 8 days.
Upon completion of the treatments, RNA transcripts were extracted from dorsal skin samples and the transcripts of Kindlin-1 and REDD1 genes were analyzed by q-RT-PCR. Histological and morphometric analyses of the dorsal skin were also performed.

B6 male mice [1] = test: Bone formation after three-month treatment (micro-CT, WNT16 transcripts); assay type: in vivo, mouse; conditions: three months
Protocol: B6 male mice (8-week-old) were daily subjected for three months to either a subcutaneous injection of vehicle (NaCl 0.9%), Dex, CpdX, CpdX(eA), CpdX(eB), CpdX-D3, CpdX-D3(eA) or CpdX-D3(eB) (1 mg/kg body weight, diluted in NaCl 0.9%).
From each animal included in the experiments, one femur and the ipsilateral tibia were dissected and preserved in 70% ethanol for further bone microstructure analysis by micro-CT. The FX Quantum micro-CT scanner (Perkin Elmer) was used to perform measurements at the distal femur and midshaft tibia. All scans were performed with an isotropic voxel size of 10 μm, 160 μA tube current and 90 kV tube voltage.
Morphological 3D measurements were performed using the CTAn software (Bruker). Cortical bone parameters, which were measured in the tibia midshaft, included measures of the bone volume fraction as compared to the total volume, cortical thickness, total area, bone area and marrow area. The region of interest was selected from below the distal tibial crest and continued for 20 slices toward the proximal end of the tibia. Trabecular bone parameters were measured in the distal metaphysis of the femurs and included bone volume fraction, trabecular thickness, trabecular number and trabecular spacing. The region of interest was selected from below the distal growth plate where the epiphyseal cap structure completely disappeared and continued for 100 slices toward the proximal end of the femur.
The statistical significance as compared to vehicle treatment was calculated through one-way ANOVA test followed by Dunn's multiple comparison test, *p<0.05; **p<0.01; ***p<0.001; ****p<0.0001.

B6 male mice [2] = test: Body weight and body composition after three-month treatment; assay type: in vivo, mouse; conditions: s.c. 1 mg/kg daily, 3 months
Protocol: B6 male mice (8-week-old) were daily subjected for three months to a subcutaneous injection of either vehicle (NaCl 0.9%), Dex, CpdX or CpdX-D3 (1 mg/kg body weight, diluted in vehicle. A pDEXA machine was used to determine the lean mass and fat mass. The statistical significance was calculated through Krustal-Walis test followed by a Dunn's multiple comparison test, *p<0.05; **p<0.01; ***p<0.001.

B6 male mice [3] = test: Organ weights (thymus, spleen, adrenal gland, kidney) after three-month treatment; assay type: in vivo, mouse; conditions: s.c. 1 mg/kg daily, three months
Protocol: B6 male mice (8-week-old) were daily subjected for three months to a subcutaneous injection of either vehicle (NaCl 0.9%), Dex, CpdX, CpdX(eA), CpdX(eB), CpdX-D3, CpdX-D3(eA) or CpdX-D3(eB) (1 mg/kg body weight, diluted in vehicle). Following these treatments, four organs (thymus, spleen, adrenal gland and kidney) were harvested and weighted.

B6 male mice [4] = test: Corticosterone synthesis and adrenal gland after three-month treatment; assay type: in vivo, mouse
Protocol: B6 male mice (8-week-old) were daily subjected for three months to either a subcutaneous injection of vehicle (NaCl 0.9%), Dex, CpdX, CpdX(eA), CpdX(eB), CpdX-D3, CpdX-D3(eA) or CpdX-D3(eB) (1 mg/kg body weight, diluted in vehicle).
Following this long-term treatment, blood was collected at 10 a.m. and 6 p.m. by retro-orbital puncture in lithium-heparin coated vials, and the plasmatic level of corticosterone was determined. Adrenal glands were harvested and weighted. RNA transcripts were extracted and transcripts of the Cyp11a, Cyp11b1, Cyp11b2 and HSD3β genes were analyzed by q-RT-PCR. Histological analyses of the adrenal glands were also carried out.

B6 male mice [5] = test: Blood glucose and intraperitoneal glucose tolerance test after three-month treatment; assay type: in vivo, mouse
Protocol: B6 male mice (8-week-old) were daily subjected for three months to a subcutaneous injection of either vehicle (NaCl 0.9%), Dex, CpdX, CpdX(eA), CpdX(eB), CpdX-D3, CpdX-D3(eA) or CpdX-D3(eB) (1 mg/kg body weight, diluted in vehicle). Mice were over-night-fasted. Mouse blood glucose concentration was measured before (T0) and during two hours (T120) after glucose i.p. injection ([…] body weight).

B6 male mice [6] = test: Insulin level, insulin tolerance test and liver insulin signalling after three-month treatment; assay type: in vivo, mouse
Protocol: B6 male mice (8-week-old) were subjected daily for three months to a subcutaneous injection of either vehicle (NaCl 0.9%), Dex, CpdX, CpdX(eA), CpdX(eB), CpdX-D3, CpdX-D3(eA) or CpdX-D3(eB) (1 mg/kg body weight, diluted in vehicle). After three months, the blood was collected at 10 a.m. by retro-orbital puncture in lithium-heparin coated vials, and the plasmatic level of insulin was determined.
For the intraperitoneal insulin tolerance test (IPITT), mice were fasted for 6 hours before test. The blood glucose concentration was measured both before (T0) and during a one-hour period after insulin i.p. injection (0.75 U/kg body weight).
Following this three-month treatment, liver samples were harvested and lysed in the RIPA buffer (20 mM Tris pH 8, 150 mM NaCl, 10% glycerol, 1% NP-40 and 2 mM EDTA). Antibodies from Cell Signaling were used to assess by Western-Blotting the relative level of p-IRS1 (S318), IRS-1, p-AKT (S473) and AKT.

B6 male mice [7] = test: Fatty liver after three-month treatment; assay type: in vivo, mouse; conditions: three months
Protocol: B6 male mice (8-week-old) were daily subjected for three months to a subcutaneous injection of either vehicle (NaCl 0.9%), Dex, CpdX, CpdX(eA), CpdX(eB), CpdX-D3, CpdX-D3(eA) or CpdX-D3(eB) (1 mg/kg body weight, diluted in vehicle). Following this treatment, blood was collected at 10 a.m. by retro-orbital puncture in lithium-heparin coated vials. The plasmatic levels of total cholesterol and bile acids were determined.
Liver samples were harvested. […] RNA transcripts were extracted from liver samples and the transcripts of fatty acid synthase (FASN) and Stearoyl-CoA desaturase 1 (SCD1) genes were analyzed by q-RT-PCR.

B6 male mice [8] = test: Bone formation after three-month treatment (micro-CT, WNT16 transcripts); assay type: in vivo; conditions: mouse tibia, three months
[9] = target: T1, glucocorticoid receptor (GR) (Mus musculus, UniProt P06537); test: GR transcriptional functions in mouse ears after topical 18-hour treatment (q-RT-PCR); assay type: in vivo; conditions: in vivo transcriptional analyses, 1 nmole/cm^2
T1 construct: RNA transcripts were then extracted from mouse ears; from tissue; host or cells: ear skin of Balb/C mice (in vivo topical treatment)
T1 sequence (P06537 1-792): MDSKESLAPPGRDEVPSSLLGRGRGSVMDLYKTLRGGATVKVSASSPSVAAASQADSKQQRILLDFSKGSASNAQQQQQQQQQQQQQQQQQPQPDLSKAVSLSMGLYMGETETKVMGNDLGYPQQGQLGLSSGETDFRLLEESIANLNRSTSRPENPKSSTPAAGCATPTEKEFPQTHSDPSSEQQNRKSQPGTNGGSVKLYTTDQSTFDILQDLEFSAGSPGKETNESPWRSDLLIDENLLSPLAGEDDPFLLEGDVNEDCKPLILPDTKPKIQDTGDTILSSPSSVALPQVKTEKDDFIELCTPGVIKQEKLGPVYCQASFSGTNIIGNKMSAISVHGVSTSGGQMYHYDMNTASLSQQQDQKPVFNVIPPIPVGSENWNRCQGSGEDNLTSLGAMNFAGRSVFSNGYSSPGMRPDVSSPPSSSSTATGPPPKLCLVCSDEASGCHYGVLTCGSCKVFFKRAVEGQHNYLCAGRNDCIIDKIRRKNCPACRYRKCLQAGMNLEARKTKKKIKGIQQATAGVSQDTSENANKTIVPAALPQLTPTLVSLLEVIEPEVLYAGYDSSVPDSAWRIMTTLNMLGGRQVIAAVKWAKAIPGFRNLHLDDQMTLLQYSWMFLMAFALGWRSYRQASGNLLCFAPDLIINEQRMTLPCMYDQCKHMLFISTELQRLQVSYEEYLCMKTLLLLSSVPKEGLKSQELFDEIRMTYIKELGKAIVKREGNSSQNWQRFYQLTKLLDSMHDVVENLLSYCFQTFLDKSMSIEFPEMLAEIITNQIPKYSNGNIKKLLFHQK
Protocol: RNA transcripts were then extracted from mouse ears and the transcripts of 4 genes were analyzed by q-RT-PCR: • (i) the directly GR-transactivated gene of the mTOR inhibitor REDD1, • (ii) the GR-directly transrepressed gene of keratin 5 (K5) and • (iii) the GR-indirectly “tethered” transrepressed genes of interleukin-1β (IL-1β) and interleukin-6 (IL-6), both being activated in presence of 12-O-tetradecanoylphorbol-13-acetate (TPA).

C[C@@H]1C[C@H]2[C@@H]3CCC4=CC(=O)C=C[C@]4(C)[C@@]3(F)[C@@H](O)C[C@]2(C)[C@@]1(O)C(=O)CO [Dex, Dexamethasone, reference compound]
epidermal thickness decreases by (Balb/C mice; eight-day topical treatment, morphometric analysis): ≈ 65% | skin atrophy, histological analysis (Balb/C mice; eight-day topical treatment, 'in marked contrast' = no severe atrophy as with Dex): severely induces a skin atrophy | transcription of the Kindlin-1 gene in dorsal skin (Balb/C mice; topical 8 days, 1 nmole/cm^2, 'but not' = not decreased): strongly decreased | transcription of the REDD1 gene in dorsal skin (Balb/C mice; topical 8 days, 1 nmole/cm^2, 'but not' = not increased): significantly increased | bone area (B6 male mice [1]; s.c. 1 mg/kg daily, micro-CT): reduced | cortical thickness (B6 male mice [1]; s.c. 1 mg/kg daily, micro-CT): drastically decreased | tibia cortical bone volume as compared to the total volume (B6 male mice [1]; s.c. 1 mg/kg daily, micro-CT): significantly decreased | marrow area (B6 male mice [1]; s.c. 1 mg/kg daily, 'but not' = not reduced): but not | number of trabecula (B6 male mice [1]; data not shown): increase | trabecular bone volume (B6 male mice [1]; data not shown): increased | trabecular spacing (B6 male mice [1]; data not shown): decrease | trabecular thickness (B6 male mice [1]; data not shown): no change | fat mass (B6 male mice [2]; pDEXA): disproportional increase | lean percentage / lean mass (B6 male mice [2]; pDEXA): decrease | body weight (B6 male mice [2]; compared with vehicle): net loss | kidney weight (B6 male mice [3]): weak, but significant loss | spleen weight decreased by (B6 male mice [3]): more than 50% | thymus apoptosis / thymus found (B6 male mice [3]): no thymus was found in sixteen out of nineteen mice | weight of the adrenal gland (B6 male mice [3]): decreased | plasmatic corticosterone levels (B6 male mice [4]; at both 10 a.m. and 6 p.m., compared to control mice (Vehicle)): much lower | cortex layers, most notably the fasciculata zone, of the adrenal glands (B6 male mice [4]; three months, histology): drastically decreased | glomerulosa zone of the adrenal cortex (B6 male mice [4]; three months, histology, 'but not' = not decreased): drastically decreased | transcripts of Cyp11a, Cyp11b1 and HSD3β genes in adrenal glands (B6 male mice [4]; three months, q-RT-PCR): inhibited | transcript of the Cyp11b2 gene in adrenal glands (B6 male mice [4]; three months, q-RT-PCR, 'but not' = not inhibited): inhibited | blood glucose level (B6 male mice [5]; three months, over-night fasting, vs vehicle and CpdX compounds): significantly higher | blood glucose level in intraperitoneal glucose tolerance test (IPGTT) (B6 male mice [5]; two-hour period after glucose i.p. injection (2 mg/kg body weight)): significant higher | IPITT test, response to insulin (B6 male mice [6]; one hour after insulin i.p. 0.75 U/kg): significant impaired response to insulin | blood insulin level (hyperinsulinemia) (B6 male mice [6]; three months, 10 a.m., 'but not' = no hyperinsulinemia): hyperinsulinemia | phosphorylation of insulin-stimulated protein kinase B (p-AKT S473) (B6 male mice [6]; western-blot, liver): decreased | phosphorylated insulin receptor substrate 1 (p-IRS1 S318) in liver extracts (B6 male mice [6]; western-blot, 'but not' = no decrease): decrease | lipid deposition in the liver (B6 male mice [7]; 5% Red oil staining of frozen sections): marked lipid deposition | transcripts of fatty acid synthase (FASN) and Stearoyl-CoA desaturase 1 (SCD1) in liver (B6 male mice [7]; q-RT-PCR, 'but not' = no increase): increase | blood cholesterol and bile acids' levels (B6 male mice [7]; 'but not' = no clear increase): clear increase | transcription of the WNT16 gene decreased by (B6 male mice [8]): 50%

Cc1ccc2c(NC[C@](O)(CC(C)(C)c3cc(F)cc4c3OCC4)C(F)(F)F)cccc2n1 [Mapracorat, reference compound]
GR functions induced (direct transactivation, direct transrepression, indirect tethered transrepression) [9]: all three GR functions

Reference: patent US20190151283A1, “NON-STEROIDAL SELECTIVE GLUCOCORTICOID RECEPTOR AGONISTIC MODULATORS (SEGRAMs) AND USES THEREOF” (ASSOCIATION POUR LA RECHERCHE À L'IGBMC (ARI), priority 2017, published 2019)
